From patent US20230051589A1, “COMPOUNDS AND COMPOSITIONS FOR TREATING CONDITIONS ASSOCIATED WITH NLRP ACTIVITY” (Novartis AG, priority 2018, published 2023) come the findings set out here.

Molecules are shown by their SMILES. Where two headings read alike, the source gives them in different places. Where only a bound is given, the exact number is not on record here.

In this assay the test system is IL-1β production in PMA-differentiated THP-1 cells. In words: IL-1β production in PMA-differentiated THP-1 cells stimulated with gramicidin (hTHP-1 assay, 2% fetal bovine serum; Procedures 1-3). The settings on record: read-out: IC50. The assay is classed as cell-based, human. The method in brief: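 PMA-primed THP-1 cells (20 ng/ml PMA, 16-18 h) in RPMI with 2% FBS were pre-incubated with compounds for 1 h, from 100 μM downward in 3-fold steps (0.37% DMSO final), then stimulated with 5 μM gramicidin for 2 h. IL-1β in the supernatant was quantified by HTRF.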

[1] abbreviates: Homo sapiens, THP-1, hTHP-1 assay containing 2% fetal bovine serum, Table B2, class symbols.
Setting [2] is: Homo sapiens, THP-1, hTHP-1 assay containing 2% fetal bovine serum, Table B2, given as bound.
Setting [3] is: hTHP-1 assay containing 2% fetal bovine serum, Table B2, class symbols.
[4] abbreviates: hTHP-1 assay containing 2% fetal bovine serum, Table B2, given as bound.

By IC50 is commonly meant the concentration at which inhibition is half-maximal. Turning to `CC(C)(O)c1cnc(S(N)(=O)=NC(=O)Nc2c3c(cc4c2CCC4=O)CCC3)s1` (single isomer, unassigned) [Example 589, (R) or (S)-5-(2-hydroxypropan-2-yl)-N′-((1-oxo-1,2,3,5,6,7-hexahydro-s-indacen-4-yl)carbaamoyl) thiazole-2-sulfonimidamide], under setting [1], the IC50 was in the range of 1 to 5 µM.
Turning to `CC(C)(O)c1ccc(S(N)(=O)=NC(=O)Nc2cc3c(c4c2CCC4)CCC3)cn1` (single isomer, unassigned) [Example 590, (S) or (R)-N′-((1,2,3,6,7,8-hexahydro-as-indacen-4-yl)carbamoyl)-6-(2-hydroxypropan-2-yl)pyridine-3-sulfonimidamide], the IC50 under setting [2] is > 30 µM.
Consider `CC(C)(O)c1ccc(S(N)(=O)=NC(=O)Nc2cc3c(c4c2CCC4)CCC3)cn1` (single isomer, unassigned) [Example 591, (R) or (S)-N′-((1,2,3,6,7,8-hexahydro-as-indacen-4-yl)carbamoyl)-6-(2-hydro\ypropan-2-yl)pyridine-3-sulfonimidamide], for which, under setting [1], the 50% inhibitory concentration (IC50) was in the range of 1 to 5 µM.
For `CNC(C)(C)c1ccc(S(N)(=O)=NC(=O)Nc2c3c(cc4c2CCC4)CCC3)c(F)c1` (single isomer, unassigned) [Example 592, (S) or (R)-2-fluoro-N′-((1,2,3,5,6,7-hexahydro-s-indacen-4-yl)carbamoyl)-4-(2-(methylamino)propan-2-yl) benzenesulfonimidamide], under setting [3], the half-inhibitory concentration (IC50) fell in the range of 5 to 30 µM.
The same measure, in the same setting: the same measure for `CNC(C)(C)c1ccc(S(N)(=O)=NC(=O)Nc2c3c(cc4c2CCC4)CCC3)c(F)c1` (single isomer, unassigned) [Example 593, (R) or (S)-2-fluoro-N′-((1,2,3,5,6,7-hexahydro-s-indacen-4-yl)carbamoyl)-4-(2-(methylamino)propan-2-yl) benzenesulfonimidamide]: 0.2 to 1 µM.
`N[S@](=O)(=NC(=O)Nc1c2c(cc3c1CCC3)CCC2)c1ccc(C(F)F)nc1` (single isomer, unassigned) [Example 594, (S) or (R)-6-(difluoromethyl)-N′-((1,2,3,5,6,7-hexahydroxy-indacen-4-yl)carbamoyl) pyridine-3-sulfonimidamide]: the concentration for half-maximal inhibition (IC50) under setting [4] was > 30 µM.
As to `N[S@@](=O)(=NC(=O)Nc1c2c(cc3c1CCC3)CCC2)c1ccc(C(F)F)nc1` (single isomer, unassigned) [Example 595, (R) or (S)-6-(difluoromethyl)-N′-((1,2,3,5,6,7-hexahydroxy-indacen-4-yl)carbamovl)pyridine-3-sulfonimidamide], the IC50 under setting [3] was 1 to 5 µM.
Regarding `CC(C)(O)c1ncc(S(N)(=O)=NC(=O)Nc2c3c(c(Cl)c4c2CCC4)CCC3)s1` (single isomer, unassigned) [Example 596, (S) or (R)-N′-((8-chloro-1,2,3,5,6,7-hexahydro-s-indacen-4-yl)carbamoyl)-2-(2-hydroxypropan-2-yl)thiazole-5-sulfonimidamide], the half-inhibitory concentration (IC50) under setting [3] lay within 1 to 5 µM.
Still for that read-out and setting: the same measure for `CC(C)(O)c1ncc(S(N)(=O)=NC(=O)Nc2c3c(c(Cl)c4c2CCC4)CCC3)s1` (single isomer, unassigned) [Example 597, (R) or (S)-N′-((8-chloro-1,2,3,5,6,7-hexahydro-s-indacen-4-yl)carbamoyl)-2-(2-hydroxypropan-2-yl)thiazole-5-sulfonimidamide]: 0.04 to 0.2 µM; for `CC(C)(O)c1csc(S(N)(=O)=NC(=O)Nc2c3c(cc4c2CCC4=O)CCC3)c1` (single isomer, unassigned) [Example 598, (R) or (S)-4-(2-hydroxypropan-2-yl)-N′-((1-oxo-1,2,3,5,6,7-hexahydro-s-indacen-4-yl)carbamoyl) thiophene-2-sulfonimidamide]: 0.2 to 1 µM; for `CC(C)(O)c1csc(S(N)(=O)=NC(=O)Nc2c3c(cc4c2CCC4=O)CCC3)c1` (single isomer, unassigned) [Example 599, (S) or (R)-4-(2-hydroxypropan-2-yl)-N′-((1-oxo-1,2,3,5,6,7-hexahydro-s-indacen-4-yl)carbamoyl) thiophene-2-sulfonimidamide]: 5 to 30 µM.
On the same count and under the same terms, the same measure for `CC(C)(O)c1cc(F)c(S(N)(=O)=NC(=O)Nc2c3c(cc4c2CCC4=O)CCC3)s1` (single isomer, unassigned) [Example 600, (R) or (S)-3-fluoro-5-(2-hydroxypropan-2-yl)-N′-((1-oxo-1,2,3,5,6,7-hexahydro-s-indacen-4-yl)carbamoyl)thiophene-2-sulfonimidamide]: 0.2 to 1 µM; for `CC(C)(O)c1cc(F)c(S(N)(=O)=NC(=O)Nc2c3c(cc4c2CCC4=O)CCC3)s1` (single isomer, unassigned) [Example 601, (S) or (R)-3-fluoro-5-(2-hydroxypropan-2-yl)-N′-((1-oxo-1,2,3,5,6,7-hexahydro-s-indacen-4-yl)carbamoyl)thiophene-2-sulfonimidamide]: 5 to 30 µM; for `CNC(C)(C)c1ccc(S(N)(=O)=NC(=O)Nc2c3c(cc4c2CCC4)CCC3)cc1` (single isomer, unassigned) [Example 602, (R) or (S)-N′-((1,2,3,5,6,7-hexahydro-s-indacen-4-yl)carbamoyl)-4-(2-(methylamino)propan-2-yl) benzenesuIfonimidamide]: 0.2 to 1 µM.
Same read-out and setting: the value for `CNC(C)(C)c1ccc(S(N)(=O)=NC(=O)Nc2c3c(cc4c2CCC4)CCC3)cc1` (single isomer, unassigned) [Example 603, (R) or (S)-N′-((1,2,3,5,6,7-hexahydro-s-indacen-4-yl)carbamoyl)-4-(2-(methylamino)propan-2-yl) benzenesulfonimidamide] was 5 to 30 µM.
Take `CN(C)Cc1ccc([S@@](N)(=O)=NC(=O)Nc2c3c(cc4c2CCC4)CCC3)cc1F` (single isomer, unassigned) [Example 604, (S) or (R)-4-((dimethylamino)methyl)-3-fluoro-N′-((1,2,3,5,6,7-hexahydro-s-indacen-4-yl)carbamoyl) benzenesulfonimidamide]: the IC50 under setting [4] is > 30 µM.
For the compound `CN(C)Cc1ccc([S@](N)(=O)=NC(=O)Nc2c3c(cc4c2CCC4)CCC3)cc1F` (single isomer, unassigned) [Example 605, (R) or (S)-4-((dimethylamino)methyl)-3-fluoro-N′-((1,2,3,5,6,7-hexahydro-s-indacen-4-yl)carbamoyl) benzenesulfonimidamide], under setting [3], the IC50 was 0.2 to 1 µM.
Turning to `COc1cc(CN(C)C)ccc1S(N)(=O)=NC(=O)Nc1c2c(cc3c1CCC3)CCC2` (single isomer, unassigned) [Example 606, (R) or (S)-4-((dimethylamino)methyl)-N′-((1,2,3,5,6,7-hexahydro-s-indacen-4-yl)carbamoyl)-2-methoxybenzene-sulfonimidamide], the IC50 under setting [1] lay in the range of 0.2 to 1 µM.
Turning to `COc1cc(CN(C)C)ccc1S(N)(=O)=NC(=O)Nc1c2c(cc3c1CCC3)CCC2` (single isomer, unassigned) [Example 607, (S) or (R)-4-((dimethylamino)methyl)-N′-((1,2,3,5,6,7-hexahydro-s-indacen-4-yl)carbamoyl)-2-methoxybenzene-sulfonimidamide], under setting [2], the IC50 is > 30 µM.
Regarding `CN(Cc1ccc(S(N)(=O)=NC(=O)Nc2c3c(cc4c2CCC4)CCC3)cc1)CC(F)(F)F` (single isomer, unassigned) [Example 608, (R) or (R)-N′-((1,2,3,5,6,7-hexahydro-s-indacen-4-yl)carbamoyl)-4-((methyl(2,2,2-trifluoroethyl)amino)methyl) benzenesulfonimidamide], the concentration for half-maximal inhibition (IC50) under setting [2] was > 30 µM.
Regarding `CN(Cc1ccc(S(N)(=O)=NC(=O)Nc2c3c(cc4c2CCC4)CCC3)cc1)CC(F)(F)F` (single isomer, unassigned) [Example 609, (S) or (R)-N′-((1,2,3,5,6,7-hexahydro-s-indacen-4-yl)carbamoyl)-4-((methyl(2,2,2-trifluoroethyl)amino)methyl) benzenesulfonimidamide], the IC50 under setting [4] is > 30 µM.
As for `CN(Cc1ccc(S(N)(=O)=NC(=O)Nc2c3c(cc4c2CCC4)CCC3)cc1)CC(F)F` (single isomer, unassigned) [Example 610, (R) or (S)-4-(((2,2-difluoroethyl) (methyl)amino)methyl)-N′-((1,2,3,5,6,7-hexahydro-s-indacen-4-yl)carbamoyl) benzenesulfonimidamide], under setting [1], the IC50 was 1 to 5 µM.
With `CN(Cc1ccc(S(N)(=O)=NC(=O)Nc2c3c(cc4c2CCC4)CCC3)cc1)CC(F)F` (single isomer, unassigned) [Example 611, (S) or (R)-4-(((2,2-difluoroethyl) (methyl)amino)methyl)-N′-((1,2,3,5,6,7-hexahydro-s-indacen-4-yl)carbamoyl) benzenesulfonimidamide], the IC50 under setting [2] is > 30 µM.
Still for that read-out and setting: the value for `NS(=O)(=NC(=O)Nc1c2c(cc3c1CCC3)CCC2)c1ccccc1` (single isomer, unassigned) [Example 612, (R) or (S)-N′-((1,2,3,5,6,7-hexahydro-s-indacen-4-yl)carbamoyl) benzenesulfonimidamide] was > 30 µM.
Regarding `NS(=O)(=NC(=O)Nc1c2c(cc3c1CCC3)CCC2)c1ccccc1` (single isomer, unassigned) [Example 613, (S) or (R)-N′-((1,2,3,5,6,7-hexahydro-s-indacen-4-yl)carbamoyl) benzenesulfonimidamide], under setting [4], the half-inhibitory concentration (IC50) is > 30 µM.
As for `CC(C)N(C)c1ccc(S(N)(=O)=NC(=O)Nc2c3c(cc4c2CCC4)CCC3)cc1` (single isomer, unassigned) [Example 614, (S) or (R)-N′-((1,2,3,5,6,7-hexahydro-s-indacen-4-yl)carbamoyl)-4-(isopropyl(methyl)amino) benzenesulfonimidamide], the IC50 under setting [2] is > 30 µM.
